Legend:
[1] = tested on: a variety of microorganisms; assay: Enhancement of ampicillin effectiveness (MIC of combinations), overall statement; format: cell-based; details: 1:1 with ampicillin; summary of Table II
Protocol: The procedure which is followed is the one recommended by the International Collaborative Study on Antibiotic Sensitivity Testing [Ericcson and Sherris, Acta. Pathologica et Microbiologia Scandinav, Supp. 217, Sections A and B: 64-68 (1971)], and employs brain heart infusion (BHI) agar and the inocula replicating device. Overnight growth tubes are diluted 100 fold for use as the standard inoculum (20,000-10,000 cells in approximately 0.002 ml are placed on the agar surface; 20 ml of BHI agar/dish). Twelve 2 fold dilutions of the test compound are employed, with initial concentration of the test drug being 200 mcg/ml. Single colonies are disregarded when reading tubes after 18 hrs. at 37° C. The susceptibility (MIC) of the test organism is accepted as the lowest concentration of compound capable of producing complete inhibition of growth as judged by the naked eye. The manner in which the said compounds of the formula (B) increase the effectiveness of a beta-lactam antibiotic can be appreciated by reference to experiments in which the MIC of a given antibiotic alone, and a compound of the formula (6) alone, are measured. […] The MIC values of combinations are measured using the method described by Barry and Sabath in "Manual of Clinical Microbiology", edited by Lenette, Spaulding and Truant, 2nd Edition, 1974, American Society for Microbiology. […]

[2] = tested on: Citrobacter diversus 70C031; assay: MIC on BHI agar, alone and 1:1 with ampicillin; format: cell-based; details: inhibitor alone; 18 hrs. at 37° C.
Protocol: (§1) The procedure which is followed is the one recommended by the International Collaborative Study on Antibiotic Sensitivity Testing [Ericcson and Sherris, Acta. Pathologica et Microbiologia Scandinav, Supp. 217, Sections A and B: 64-68 (1971)], and employs brain heart infusion (BHI) agar and the inocula replicating device. Overnight growth tubes are diluted 100 fold for use as the standard inoculum (20,000-10,000 cells in approximately 0.002 ml are placed on the agar surface; 20 ml of BHI agar/dish). Twelve 2 fold dilutions of the test compound are employed, with initial concentration of the test drug being 200 mcg/ml. Single colonies are disregarded when reading tubes after 18 hrs. at 37° C. […] These MIC's are then compared with the MIC values obtained with a combination of the given antibiotic and the compound of the formula (6). […] The MIC values of combinations are measured using the method described by Barry and Sabath in "Manual of Clinical Microbiology", edited by Lenette, Spaulding and Truant, 2nd Edition, 1974, American Society for Microbiology.
(§2) For purposes of comparison data on the earlier beta-lactamase inhibitor, penicillanic acid 1,1-dioxide, are included.

[3] = tested on: Enterobacter cloacae 67B009; assay: MIC on BHI agar, alone and 1:1 with ampicillin; format: cell-based; details: for MIC: inhibitor alone, 18 hrs. at 37° C.
Protocol: as §1, §2

Escherichia coli 51A266 = assay: MIC on BHI agar, alone and 1:1 with ampicillin; format: cell-based; details: for Response: 1:1 with ampicillin (E); for MIC: inhibitor alone, 18 hrs. at 37° C.
Protocol: as §1, §2

[4] = tested on: Escherichia coli-R 51A129; assay: MIC on BHI agar, alone and 1:1 with ampicillin; format: cell-based; details: for MIC: inhibitor alone, 18 hrs. at 37° C.
Protocol: as §1, §2

[5] = tested on: Klebsiella pneumoniae 53A079; assay: MIC on BHI agar, alone and 1:1 with ampicillin; format: cell-based; details: for MIC: inhibitor alone, 18 hrs. at 37° C.
Protocol: as §1, §2

Proteus morgani 57G001 = assay: MIC on BHI agar, alone and 1:1 with ampicillin; format: cell-based; details: inhibitor alone; 18 hrs. at 37° C.
Protocol: as §1, §2

[6] = tested on: Pseudomonas aeruginosa 52A104; assay: MIC on BHI agar, alone and 1:1 with ampicillin; format: cell-based; details: for MIC: inhibitor alone, 18 hrs. at 37° C.
Protocol: as §1, §2

[7] = tested on: Serratia marcescens 63A095; assay: MIC on BHI agar, alone and 1:1 with ampicillin; format: cell-based; details: inhibitor alone; 18 hrs. at 37° C.
Protocol: as §1, §2

[8] = tested on: Staphylococcus aureus 01A005; assay: MIC on BHI agar, alone and 1:1 with ampicillin; format: cell-based; details: inhibitor alone; 18 hrs. at 37° C.
Protocol: as §1, §2

[9] = tested on: Staphylococcus aureus 01A400; assay: MIC on BHI agar, alone and 1:1 with ampicillin; format: cell-based; details: inhibitor alone; 18 hrs. at 37° C.
Protocol: as §1, §2

[10] = tested on: Pseudomonas aeruginosa 52A104 cell free beta-lactamase; assay: Inhibition of cell-free beta-lactamase (microiodometric), P. aeruginosa 52A104; format: biochemical; details: for beta-lactamase inhibiting activity, in words: Pseudomonas aeruginosa; for % Inhibition Beta-Lactam Hydrolysis: Penicillin G 33 μM, pH 6.5, 37° C.
Protocol: The compounds of the present invention are thus evaluated in vitro by the ability of the compound (13) to inhibit the hydrolysis of certain beta-lactam antibiotics by beta-lactamase enzymes. The hydrolysis of ampicillin and penicillin G was determined by the microiodometric method of Novick [Biochem, J. 83, 236 (1962)]. Conditions for this assay are 0.5 M potassium phosphate, pH 6.5 and 37° C. Reactions were initiated by the addition of the cell-free beta-lactamase, except in the case of preincubation experiments in which the inhibitor and enzyme were incubated together in the assay mixture for 10 minutes before initiation of the reaction by addition of substrate. […]
(§3) Cell-free extracts were prepared by sonic treatment (using three 30-s bursts at 4° C. except for S. aureus, which was broken with a French press) of cultures grown in brain heart infusion on a rotary shaker incubator. For the S. aureus, P. aeruginose, and E. cloacae strains, de novo synthesis of beta-lactamase was induced by growing a log-phase culture in the presence of a sublethal concentration of penicillin G at 100, 1,000, and 300 microg./ml, respectively, for 2.5 hr.

[11] = tested on: Enterobacter cloacae 67B009 cell free beta-lactamase; assay: Inhibition of cell-free beta-lactamase (microiodometric), E. cloacae 67B009; format: biochemical; details: for beta-lactamase inhibiting activity, in words: Enterobacter cloacae; for % Inhibition Beta-Lactam Hydrolysis: Penicillin G 33 μM
Protocol: The compounds of the present invention are thus evaluated in vitro by the ability of the compound (13) to inhibit the hydrolysis of certain beta-lactam antibiotics by beta-lactamase enzymes. The hydrolysis of ampicillin and penicillin G was determined by the microiodometric method of Novick [Biochem, J. 83, 236 (1962)]. Conditions for this assay are 0.5 M potassium phosphate, pH 6.5 and 37° C. Reactions were initiated by the addition of the cell-free beta-lactamase, except in the case of preincubation experiments in which the inhibitor and enzyme were incubated together in the assay mixture for 10 minutes before initiation of the reaction by addition of substrate. With the cell-free extracts of Staphylococcus aureus, Escherichia coli, Klebsiella pneumoniae and Pseudomonas aeruginosa, the substrate was ampicillin at 33 micro M (13 microg./ml).
as §3

[12] = inhibitor 1.0 μM, pH 6.5, 37° C.
[13] = inhibitor 16.5 μM, pH 6.5, 37° C.
[14] = inhibitor 66 μM, pH 6.5, 37° C.

In the case of `CC1(C)[C@H](C(=O)O)N2C(=O)[C@@H](CO)[C@H]2S1(=O)=O` [compound (6), 6-beta-(hydroxymethyl)penicillanic acid 1,1-dioxide], the “enhanced spectrum and potency with ampicillin, in words” value [1] was “synergy or pronounced synergy”.

For `CC1(C)[C@H](C(=O)O)N2C(=O)[C@@H](CO)[C@H]2S1(=O)=O` [C, 6-beta-(Hydroxymethyl)penicillanic acid 1,1-Dioxides], the MIC [2] was 200 µg/mL, the MIC [3] was 100 µg/mL and the Response (Escherichia coli 51A266) was “N”. The MIC (Escherichia coli 51A266) was 50 µg/mL, the Response ([4]; 1:1 with ampicillin (E)) was “S” and the MIC [4] was 50 µg/mL. The MIC [5] was 50 µg/mL, the MIC (Proteus morgani 57G001) was greater than 200 µg/mL and the Response ([6]; 1:1 with ampicillin (E)) was “S”. It also gave an MIC [6] greater than 200 µg/mL, an MIC [7] of 200 µg/mL and an MIC [8] greater than 200 µg/mL. It also gave an MIC [9] greater than 200 µg/mL.

For `CC1(C)[C@H](C(=O)O)N2C(=O)C[C@H]2S1(=O)=O` [B, Penicillanic acid 1,1-dioxide], the “beta-lactamase inhibiting activity, in words” value [10] was “at best a low order of activity”, the “% Inhibition Beta-Lactam Hydrolysis” value ([10]; inhibitor 66 μM) was 0% and the “beta-lactamase inhibiting activity, in words” value [11] was “at best a low order of activity”. For the same molecule, the “% Inhibition Beta-Lactam Hydrolysis” value [11, 12] was 0%, the “% Inhibition Beta-Lactam Hydrolysis” value [11, 13] was 0% and the “% Inhibition Beta-Lactam Hydrolysis” value [11, 14] was 0%. For the same molecule, the “% Inhibition Beta-Lactam Hydrolysis” value ([11]; inhibitor 66 μM, preincubation of inhibitor and enzyme 10 minutes) was 26%, the MIC [2] was 200 µg/mL and the Response ([3]; 1:1 with ampicillin (E)) was “S”. For the same molecule, the MIC [3] was 100 µg/mL, the Response (Escherichia coli 51A266) was “N” and the MIC (Escherichia coli 51A266) was 25 µg/mL. For the same molecule, the MIC [4] was 200 µg/mL, the Response ([5]; 1:1 with ampicillin (E)) was “S” and the MIC [5] was 50 µg/mL. The MIC (Proteus morgani 57G001) was 200 µg/mL, the MIC [6] was greater than 200 µg/mL and the MIC [7] was 200 µg/mL. It also gave an MIC [8] of 100 µg/mL and an MIC [9] of 200 µg/mL.

With `CC1(C)[C@H](C(=O)O)N2C(=O)[C@@H](CO)[C@H]2S1(=O)=O` [A, 6-beta-(Hydroxymethyl)penicillanic acid 1,1-dioxide] the “beta-lactamase inhibiting activity, in words” value [10] was “Especially noteworthy”, the “% Inhibition Beta-Lactam Hydrolysis” value ([10]; inhibitor 1.0 μM) was 21.7% and the “% Inhibition Beta-Lactam Hydrolysis” value ([10]; inhibitor 16.5 μM) was 93.4%. The “% Inhibition Beta-Lactam Hydrolysis” value ([10]; inhibitor 66 μM) was 98.8%, the “beta-lactamase inhibiting activity, in words” value [11] was “Especially noteworthy” and the “% Inhibition Beta-Lactam Hydrolysis” value [11, 12] was 11.4%. The “% Inhibition Beta-Lactam Hydrolysis” value [11, 13] was 52.0% and the “% Inhibition Beta-Lactam Hydrolysis” value [11, 14] was 77.0%.

Reference: US4376076A, “Bis-esters of 1,1-alkanediols with 6-beta-hydroxymethylpenicillanic acid 1,1-dioxide” (priority 1982, dated 1983)
